Source: paper PMC6749346, “Synthesis of Isorhamnetin-3-O-Rhamnoside by a Three-Enzyme (Rhamnosyltransferase, Glycine Max Sucrose Synthase, UDP-Rhamnose Synthase) Cascade Using a UDP-Rhamnose Regeneration System” (Molecules, 2019)

T1: rhamnosyltransferase 78D1 (Arabidopsis thaliana, UniProt Q9S9P6)
T1 construct: gene UGT78D1; codon-optimised synthetic gene in pET-28a (BamHI/EcoRI), E. coli BL21(DE3), Ni-NTA purified; theoretical monomer mass 50019 Da
T1 sequence (Q9S9P6 1-453): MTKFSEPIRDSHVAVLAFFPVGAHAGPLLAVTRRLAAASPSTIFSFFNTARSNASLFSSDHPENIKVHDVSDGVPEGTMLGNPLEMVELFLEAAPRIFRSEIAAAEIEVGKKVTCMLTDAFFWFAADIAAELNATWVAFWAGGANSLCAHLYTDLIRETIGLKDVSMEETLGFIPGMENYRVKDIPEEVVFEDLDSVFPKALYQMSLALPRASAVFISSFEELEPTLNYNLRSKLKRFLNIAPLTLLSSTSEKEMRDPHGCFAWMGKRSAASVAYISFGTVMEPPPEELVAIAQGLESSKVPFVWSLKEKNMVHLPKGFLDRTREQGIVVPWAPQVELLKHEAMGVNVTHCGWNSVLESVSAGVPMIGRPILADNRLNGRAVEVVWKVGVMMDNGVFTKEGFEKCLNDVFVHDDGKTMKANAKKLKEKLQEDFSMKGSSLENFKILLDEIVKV

B1: rhamnosyltransferase 78D1 (Arabidopsis thaliana) (protein)
chain: T1 sequence (Q9S9P6 1-453)
notes: codon-optimised synthetic gene in pET-28a (BamHI/EcoRI), E. coli BL21(DE3), Ni-NTA purified; theoretical monomer mass 50019 Da

Columns and labels:
[1] = molecular target: T1, rhamnosyltransferase 78D1; test: HPLC activity assay with […] UDP, […] min pre-incubation; type: biochemical; settings: inhibitor; UDP-rhamnose donor, 0.5 mM isorhamnetin; 50 mM phosphate pH 7.5; 35 °C
[2] = substrate: COc1cc(-c2oc3cc(O)cc(O)c3c(=O)c2O)ccc1O; test: HPLC of isorhamnetin-3-O-rhamnoside formation, initial rates; type: biochemical, Arabidopsis thaliana; settings: co-substrate excess UDP-rhamnose, 50 mM phosphate pH 7.5, 35 °C

Molecule	% activity [1]	Km [2] [µM]
O=c1ccn([C@@H]2O[C@H](COP(=O)(O)OP(=O)(O)O)[C@@H](O)[C@H]2O)c(=O)[nH]1 [UDP]	The enzyme activity was inhibited when the concentration of UDP was gradually increased	
B1		181
